{"source": "patent US20140366440A1", "about": "“METHOD FOR PRODUCING CLONE SEEDLINGS” (OKAYAMA PREFECTURE, priority 2009, published 2014)", "type_in_all_cases": "in vivo, Eucalyptus globulus", "key": {"[1]": {"system": "E. globulus (Clone G)", "assay": "Rooting of shoots with wounded base, line whose rooting is extremely difficult", "conditions": "Example 20: 50 mg/L in medium", "procedure": "(§1) A base of the shoot thus obtained was planted to a foaming phenolic resin porous supporter (Manufactured by Smithers-Oasis Company; Product name: Oasis). […] The base of the shoot was cultured for two months in carbon dioxide gas of 1000 ppm at a temperature of 25° C. under irradiation of red light having photosynthesis photon flux density of 51.3 μmol/m^2/S and having a wavelength component of 650 nm to 670 nm to a wavelength component of 450 nm to 470 nm at a ratio of 8.2:1.8. The culturing was carried out with a culture container, which was a cube container (maximum size of about 10 cm to 11.5 cm in length×10 cm to 11.5 cm in width×10.0 cm in height) having a shape whose bulge was slightly protruded. […] Carbon dioxide gas outside the culture container was allowed to enter the culture container through this carbon dioxide gas permeable membrane covering the opening. Accordingly, carbon dioxide gas concentration inside the culture container was about 1000 ppm due to the permeation of the carbon dioxide gas through the film covering the opening of the culture container. The culture container was irradiated with red light by use of a light irradiation device (Product name: CCFL unit, maker's name: Nippon Medical& Chemical Instruments CO., LTD.). Further, humidity in the culture container is adjusted by sealing the culture container with Parafilm.\n(§2) Nine shoots were planted per culture container. A rooting rate was calculated from the number of test pieces of the shoot and the number of shoots (the number of rooted shoots) which had been rooted after the foliage was cultured for two months."}, "[2]": {"system": "E. globulus (Clone I)", "assay": "Rooting of shoots with wounded base, line whose rooting is extremely difficult", "conditions": "Example 22: 50 mg/L in medium", "procedure": "as §1, §2"}, "[3]": {"system": "E. globulus (Clone H)", "assay": "Rooting of shoots with wounded base, line whose rooting is extremely difficult", "conditions": "Example 21: 50 mg/L in medium", "procedure": "as §1, §2"}, "[4]": {"system": "E. globulus (Clone C)", "assay": "Rooting of shoots with wounded base in rooting medium containing oxidized glutathione", "conditions": "Example 16: 50 mg/L in medium", "procedure": "as §1, §2"}, "[5]": {"system": "E. globulus (Clone D)", "assay": "Rooting of shoots with wounded base in rooting medium containing oxidized glutathione", "conditions": "Example 17: 50 mg/L in medium", "procedure": "as §1, §2"}, "[6]": {"system": "E. globulus (Clone E)", "assay": "Rooting of shoots with wounded base in rooting medium containing oxidized glutathione", "conditions": "Example 18: 50 mg/L in medium", "procedure": "as §1, §2"}, "[7]": {"system": "E. globulus (wild-type F)", "assay": "Rooting of shoots with wounded base in rooting medium containing oxidized glutathione", "conditions": "Example 19: 50 mg/L in medium", "procedure": "as §1, §2"}}}
{"substance": "oxidized glutathione", "values": [{"measurement": "Rooting rate (%)", "setting": "[1]; 18 test pieces", "value": 33.3, "unit": "%"}, {"measurement": "Number of rooted shoots", "setting": "[1]; of 18 test pieces", "value": 6}, {"measurement": "Rooting rate (%)", "setting": "[2]; 5 test pieces", "value": 20.0, "unit": "%"}, {"measurement": "Number of rooted shoots", "setting": "[2]; of 5 test pieces", "value": 1}, {"measurement": "Rooting rate (%)", "setting": "[3]; 5 test pieces", "value": 40.0, "unit": "%"}, {"measurement": "Number of rooted shoots", "setting": "[3]; of 5 test pieces", "value": 2}, {"measurement": "Rooting rate (%)", "setting": "[4]; 27 test pieces", "value": 96.3, "unit": "%"}, {"measurement": "Number of rooted shoots", "setting": "[4]; of 27 test pieces", "value": 26}, {"measurement": "Rooting rate (%)", "setting": "[5]; 18 test pieces", "value": 88.9, "unit": "%"}, {"measurement": "Number of rooted shoots", "setting": "[5]; of 18 test pieces", "value": 16}, {"measurement": "Rooting rate (%)", "setting": "[6]; 27 test pieces", "value": 88.9, "unit": "%"}, {"measurement": "Number of rooted shoots", "setting": "[6]; of 27 test pieces", "value": 24}, {"measurement": "Rooting rate (%)", "setting": "[7]; 18 test pieces", "value": 100.0, "unit": "%"}, {"measurement": "Number of rooted shoots", "setting": "[7]; of 18 test pieces", "value": 18}]}
